Data reported in US20130034522A1, “THERAPIES FOR TREATING HEPATITIS C VIRUS INFECTION” (priority 2010, published 2013).
Read-outs that look alike come from different tables or passages of the source.

Assay: Study VX-222-102 Part A: VX-222 for 3 days in HCV infected subjects (PK, safety)
Format: in vivo, human
Conditions: for AUC(0-t) / concentration at 12 h / Cmax / Tmax / half-life: human, in vivo; for AUC(0-t): read-out: AUC0-12 hr Geometric Mean; for concentration at 12 h: read-out: C12 Geometric Mean; for Cmax: read-out: Cmax Geometric Mean; for half-life: read-out: T1/2 Arithmetic Mean (converted)
Experimental: In Part A of Study 102 subjects were randomized to VX-222 or placebo in a 6:2 (VX-222: placebo) allocation ratio to either Cohort 1, Cohort 2, Cohort 3, or Cohort 4. Subjects enrolled in Cohort 1, Cohort 2, and Cohort 3 were administered 250 mg, 500 mf, or 750 mg VX-222 or placebo twice daily (b.i.d.) for 3 days, respectively. Subjects enrolled in Cohort 4 were administered 1,500 mg VX-222 or placebo once daily (qd) for 3 days. Standard of care treatment, Peg-IFN-alpha-2a and RBV was offered to the subjects at the end of dosing in Part A for up to 48 weeks, if judged appropriate by the physician.
Additional results of Study VX-222-102 are described in FIGS. 2-8: Thirty-two treatment-naïve patients with chronic genotype 1 HCV infection were enrolled in the trial, including six patients in each dose group who received 250 mg of VX-222 BID, 500 mg of VX-222 BID, 750 mg of VX-222 BID, and 1,500 mg of VX-222 QD. Two patients received placebo in each of the four dosing groups, for a total of eight patients who received placebo. Part A of the trial was conducted at 10 centers in the United States, Canada and Argentina. Of the patients enrolled in the trial, 24 patients had genotype 1a HCV infection and eight patients had genotype 1b HCV infection. Six of the patients enrolled in the trial were African American, 25 were Caucasian and one was American Indian/Alaskan.
Multicenter, randomized, double-blinded, placebo-controlled, dose-ranging study • HCV genotype 1-infected patients • With no evidence of cirrhosis • ALT values <5×ULM • Plasma HCV RNA of >5 log10 IU/mL at screening • 4-arm comparative study (6:2 randomization VX-222: placebo) • Enrollment in this dosing—ranging study was sequential • 250 mg BID for 3 days • 500 mg BID for 3 days • 750 mg BID for 3 days • 1500 mg QD for 3 days.

[1] = all four dose groups, blinded pooled data placebo or VX-222
[2] = 250 mg, 250 mg b.i.d., Day 1, HCV infected subjects
[3] = 250 mg, 250 mg b.i.d., Day 3, HCV infected subjects
[4] = 500 mg, 500 mg b.i.d., Day 1, HCV infected subjects
[5] = 500 mg, 500 mg b.i.d., Day 3, HCV infected subjects
[6] = 750 mg, 750 mg b.i.d., Day 1, HCV infected subjects
[7] = 750 mg, 750 mg b.i.d., Day 3, HCV infected subjects

With `CC1CCC(C(=O)N(c2cc(C#CC(C)(C)C)sc2C(=O)O)C2CCC(O)CC2)CC1` (stereo not drawn) [VX-222, 5-(3,3-Dimethylbut-1-ynyl)-3-[(trans-4-hydroxycyclohexyl)-(4-trans methylcyclohexanecarbonyl)amino]thiophene-2-carboxylic acid] the “severe or serious events” value (250, 500 or 750 mg b.i.d. for 3 days, genotype 1 chronic hepatitis C subjects) was “no reported severe or serious events”, the “VX-222 exposures versus dose” value (250-750 mg BID and 1500 mg QD, FIG. 7) was “increased with doses in an approximately proportional manner” and the “severe or serious adverse events” value [1] was “no severe or serious adverse events were reported”. The tolerability [1] was “well-tolerated”, the AUC(0-t) [2] was 11700 ng·h/mL and the concentration at 12 h [2] was 858 ng/mL. For the same molecule, the Cmax [2] was 1810 ng/mL, the Tmax (250 mg, 250 mg b.i.d., Day 1, HCV infected subjects, read-out: tmax Median) was 6 h and the AUC(0-t) [3] was 19500 ng·h/mL. The concentration at 12 h [3] was 728 ng/mL, the Cmax [3] was 2960 ng/mL and the Tmax (250 mg, 250 mg b.i.d., Day 3, HCV infected subjects, read-out: tmax Median) was 4 h. The AUC(0-t) [4] was 22900 ng·h/mL, the concentration at 12 h [4] was 767 ng/mL and the Cmax [4] was 4360 ng/mL. The Tmax (500 mg, 500 mg b.i.d., Day 1, HCV infected subjects, read-out: tmax Median) was 3 h, the AUC(0-t) [5] was 29800 ng·h/mL and the concentration at 12 h [5] was 858 ng/mL. The Cmax [5] was 5040 ng/mL, the Tmax (500 mg, 500 mg b.i.d., Day 3, HCV infected subjects, read-out: tmax Median) was 2.5 h and the AUC(0-t) [6] was 43600 ng·h/mL. For the same molecule, the concentration at 12 h [6] was 1690 ng/mL, the Cmax [6] was 6520 ng/mL and the Tmax (750 mg, 750 mg b.i.d., Day 1, HCV infected subjects, read-out: tmax Median) was 3 h. The AUC(0-t) [7] was 63000 ng·h/mL, the concentration at 12 h [7] was 1680 ng/mL and the Cmax [7] was 10300 ng/mL. The Tmax (750 mg, 750 mg b.i.d., Day 3, HCV infected subjects, read-out: tmax Median) was 2 h, the Tmax (post dose, 250-750 mg BID and 1500 mg QD, FIG. 7, read-out: Tmax) was 2 to 6 h and the half-life (250 mg b.i.d., Day 3, HCV infected subjects) was 4.1 h. For the same molecule, the half-life (500 mg b.i.d., Day 3, HCV infected subjects) was 4 h and the half-life (750 mg b.i.d., Day 3, HCV infected subjects) was 3.5 h.
